Like-named read-outs stand apart in the source and are kept apart here.
Experiments:
[1] = system: HCV 1a; assay: HCV 1a replicon assay; format: cell-based; conditions: Hepatitis C virus; class symbol; cell marked (HCV genotype 1a replicon); read-out: Inhibition of HCV genotype 1a replicon
Experimental: Compounds of the invention can inhibit multiple genotypes of HCV selected but not limited to 1a, 1h, 2a, 3a, and 4a. The EC50s are measured in the corresponding replicon assays that are similar to HCV 1b replicon assay as described above.
The biological activity against HCV 1b, 1a, or 2a is indicated as being *, **, ***, or ****, which corresponds to EC50 ranges of EC50>1000 nM, 100 nM<EC50≦1000 nM, 10 nM<EC50≦100 nM, or EC50≦10 nM, respectively. The biological activity against HCV NS5B C316Y or S365A mutant is indicated as being […], which corresponds to EC50 ranges of EC50>1000 nM, 200 nM<EC50≦1000 nM, […], respectively.

[2] = system: 1b_Huh-Luc/Neo-ET cell line (bicistronic genotype 1b replicon in Huh 7 cells); assay: HCV 1b replicon assay, luciferase readout; format: cell-based, HCV genotype 1b; conditions: Hepatitis C virus
Experimental: Biological activity of the compounds of the invention was determined using an HCV replicon assay. The 1b_Huh-Luc/Neo-ET cell line persistently expressing a bicistronic genotype 1b replicon in Huh 7 cells was obtained from ReBLikon GMBH. This cell line was used to test compound inhibition using luciferase enzyme activity readout as a measurement of compound inhibition of replicon levels.
On Day 1 (the day after plating), each compound is added in triplicate to the cells. Plates incubated for 72 […] prior to running the luciferase assay. Enzyme activity was measured using a Bright-Glo Kit (cat. number E2620) manufactured by Promega Corporation. The following equation was used to generate a percent control value for each compound.
%Control=(Average Compound Value/Average Control)*100
The EC50 value was determined using GraphPad Prism and the following equation:
Y=Bottom+(Top−Bottom)/(1+10̂((LogIC50−X)*HillSlope))
EC50 values of compounds are repeated several times in the replicon assay.

[3] = Huh-7, 1b_Huh-Luc/Neo-ET cell line, read-out: EC50, half-maximal inhibition of HCV 1b replication
[4] = Huh-7, class symbol, HCV genotype 1b replicon, read-out: Inhibition of HCV genotype 1b replicon

Structure (SMILES) | EC50 [1] | EC50 [2, 3] | EC50 [2, 4]
CNC(=O)c1c(-c2ccc(F)cc2)oc2cc3c(cc12)[C@@H](C)N1CCC[C@H]1CN3S(C)(=O)=O (single isomer, unassigned) [Compound B122] | > 1000 nM | – | –
CNC(=O)c1c(-c2ccc(Oc3ccc(F)cc3)cc2)oc2cc3c(cc12)[C@H]1C[C@H]1CCN3S(C)(=O)=O (single isomer, unassigned) [Compound B143] | 100 to 1000 nM | – | –
CNC(=O)c1c(-c2ccc(F)cc2)oc2cc3c(cc12)CCCCN3C(C)=O [Compound B80] | > 1000 nM | – | –
CNC(=O)c1c(-c2ccc(F)cc2)oc2cc3c(cc12)/C(C)=C\CCCN3S(C)(=O)=O [Compound B81] | 100 to 1000 nM | – | –
CNC(=O)c1c(-c2ccc(F)cc2)oc2cc3c(cc12)C(=O)CCCCN3S(C)(=O)=O [Compound B82] | 100 to 1000 nM | – | –
CNC(=O)c1c(-c2ccc(F)cc2)oc2cc3c(cc12)CCCCN3S(N)(=O)=O [Compound B102] | 100 to 1000 nM | – | –
CNC(=O)c1c(-c2ccc(F)cc2)oc2cc3c(cc12)CCCCN3S(=O)(=O)N(C)C [Compound B103] | 100 to 1000 nM | – | –
CNC(=O)c1c(-c2ccc(F)cc2)oc2cc3c(cc12)C1(CCCCN3S(C)(=O)=O)CC1 [Compound B104] | 100 to 1000 nM | – | –
CNC(=O)c1c(-c2ccccc2)nn2cc3c(cc12)C(C)CCCN3S(C)(=O)=O (stereo not drawn) [Compound B105] | 100 to 1000 nM | – | –
CNC(=O)c1c(-c2ccc(F)cc2)oc2cc3c(cc12)C(C)N(C(C)=O)CCN3S(C)(=O)=O (stereo not drawn) [Compound B110] | 100 to 1000 nM | – | –
CNC(=O)c1c(-c2ccc(Oc3ccc(F)cc3)cc2)oc2cc3c(cc12)[C@@H](C)OCCN3S(C)(=O)=O [Compound B117] | 100 to 1000 nM | – | –
CNC(=O)c1c(-c2ccc(F)cc2)oc2cc3c(cc12)C(C)OC(C(=O)NC)CN3S(C)(=O)=O (stereo not drawn) [Compound B229] | – | 10 to 100 nM | 10 to 100 nM
CNC(=O)c1c(-c2ccc(F)cc2)oc2cc3c(cc12)[C@H](C)O[C@H](CCO)CN3S(C)(=O)=O [Compound B230] | – | 10 to 100 nM | 10 to 100 nM
CNC(=O)c1c(-c2ccc(F)cc2)oc2cc3c(cc12)[C@H](C)O[C@@H](CCO)CN3S(C)(=O)=O [Compound B231] | – | 10 to 100 nM | 10 to 100 nM
CNC(=O)c1c(-c2ccc(F)cc2)oc2cc3c(cc12)[C@H](C)O[C@H](CCS(C)(=O)=O)CN3S(C)(=O)=O [Compound B233] | – | ≤ 10 nM | < 10 nM
CNC(=O)c1c(-c2ccc(F)cc2)oc2cc3c(cc12)[C@H](C)O[C@@H](CCS(C)(=O)=O)CN3S(C)(=O)=O [Compound B234] | – | 10 to 100 nM | 10 to 100 nM
CNC(=O)c1c(-c2ccc(Oc3ccc(F)cc3)cc2)oc2cc3c(cc12)C(C)OC(CCO)CN3S(C)(=O)=O (stereo not drawn) [Compound B235] | – | 10 to 100 nM | 10 to 100 nM
CNC(=O)c1c(-c2ccc(Oc3ccc(F)cc3)cc2)oc2cc3c(cc12)C(C)OC(CCS(C)(=O)=O)CN3S(C)(=O)=O (stereo not drawn) [Compound B236] | – | ≤ 10 nM | < 10 nM
CNC(=O)c1c(-c2ccc(Oc3ccc(F)cc3)cc2)oc2cc3c(cc12)[C@H](C)O[C@H](COC(=O)[C@@H](N)C(C)C)CN3S(C)(=O)=O [Compound B237] | – | ≤ 10 nM | < 10 nM
CNC(=O)c1c(-c2ccc(Oc3ccc(F)cc3)cc2)oc2cc3c(cc12)[C@H](C)O[C@H](COC(=O)[C@H](C)N)CN3S(C)(=O)=O [Compound B238] | – | ≤ 10 nM | < 10 nM
CNC(=O)c1c(-c2ccc(Oc3ccc(F)cc3)cc2)oc2cc3c(cc12)[C@H](C)O[C@H](COC(=O)CN(C)C)CN3S(C)(=O)=O [Compound B239] | – | ≤ 10 nM | < 10 nM
CNC(=O)c1c(-c2ccc(Oc3ccc(F)cc3)cc2)oc2cc3c(cc12)[C@H](C)O[C@H](COP(=O)(O)O)CN3S(C)(=O)=O [Compound B240] | – | ≤ 10 nM | < 10 nM
CNC(=O)c1c(-c2ccc(Oc3ccc(F)cc3)cc2)oc2cc3c(cc12)[C@H](C)O[C@@H](CO)CN3S(C)(=O)=O [Compound B241] | – | 10 to 100 nM | 10 to 100 nM
CNC(=O)c1c(-c2ccc(F)cc2)nn2cc3c(cc12)C(C)OC(CO)CN3S(C)(=O)=O (stereo not drawn) [Compound B242] | – | – | 100 to 1000 nM
